Experiments:
[1] = biological target: Protein kinase C eta type (Homo sapiens) (UniProt P24723); assay: Selectivity interaction (Millipore kinase profiler) EUB0000124b PRKCH; details: at 10 µM
[2] = biological target: T1, Dual specificity mitogen-activated protein kinase kinase 4 (Homo sapiens) (UniProt P45985); assay: Selectivity interaction (KinomeScan (DiscoverX)) EUB0000666a MAP2K4; details: at 10 µM
T1 sequence (whole entry): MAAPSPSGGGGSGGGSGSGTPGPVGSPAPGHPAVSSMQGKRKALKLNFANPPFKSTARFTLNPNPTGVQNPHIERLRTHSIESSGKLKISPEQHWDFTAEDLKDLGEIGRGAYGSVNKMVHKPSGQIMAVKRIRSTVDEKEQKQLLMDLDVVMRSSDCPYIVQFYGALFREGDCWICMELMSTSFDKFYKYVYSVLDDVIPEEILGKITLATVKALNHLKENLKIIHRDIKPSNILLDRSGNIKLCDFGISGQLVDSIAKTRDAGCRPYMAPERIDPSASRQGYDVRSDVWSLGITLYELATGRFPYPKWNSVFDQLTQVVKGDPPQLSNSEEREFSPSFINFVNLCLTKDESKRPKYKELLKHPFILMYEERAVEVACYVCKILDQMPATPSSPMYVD

[3] = biological target: 5'-AMP-activated protein kinase catalytic subunit alpha-2 (Homo sapiens) (UniProt P54646); assay: Selectivity interaction (KinomeScan (DiscoverX)) EUB0000666a PRKAA2; details: at 10 µM
[4] = biological target: Protein-tyrosine kinase 6 (Homo sapiens, UniProt Q13882); assay: Selectivity interaction (KinomeScan (DiscoverX)) EUB0000229b PTK6; details: at 10 µM
[5] = biological target: Tyrosine-protein kinase Srms (Homo sapiens) (UniProt Q9H3Y6); assay: Selectivity interaction (KinomeScan (DiscoverX)) EUB0000229b SRMS; details: at 10 µM
[6] = biological target: Serine/threonine-protein kinase/endoribonuclease IRE1 (Homo sapiens) (UniProt O75460); assay: Selectivity interaction (Kinase panel (KiNativ target engagement assay in Jurkat cells)) EUB0001635a ERN1; type: cell-based; details: Selectivity number of off-targets 0.0, Selectivity number of targets 233.0, Source Knowledge https://www.sciencedirect.com/science/article/pii/S2451945619300674?via%3Dihub, at 1 µM
[7] = biological target: Phosphatidylinositol 4,5-bisphosphate 3-kinase catalytic subunit beta isoform (Homo sapiens) (UniProt P42338); assay: Selectivity interaction (KinomeScan (DiscoverX)) EUB0000877a PIK3CB; details: at 10 µM
[8] = biological target: Protein arginine N-methyltransferase 8 (Homo sapiens, UniProt Q9NR22); assay: Selectivity interaction (Methyltransferase screen (Scintillation proximity assays)) EUB0000255b PRMT8
[9] = biological target: Ribosomal protein S6 kinase alpha-3 (Homo sapiens, UniProt P51812); details: at 10 µM
[10] = biological target: Serine/threonine-protein kinase PAK 4 (Homo sapiens, UniProt O96013)
[11] = biological target: Serine/threonine-protein kinase SBK1 (Homo sapiens) (UniProt Q52WX2); assay: Selectivity interaction (KinomeScan (DiscoverX)) EUB0001619a SBK1; details: at 1 µM
[12] = biological target: Serine/threonine-protein kinase 26 (Homo sapiens, UniProt Q9P289); details: PBMC, at 1 µM
[13] = biological target: Calcium/calmodulin-dependent protein kinase type II subunit delta (Homo sapiens) (UniProt Q13557); assay: Selectivity interaction (KinomeScan (DiscoverX)) EUB0000655a CAMK2D; details: at 10 µM
[14] = biological target: T2, 5-hydroxytryptamine receptor 3A (Homo sapiens) (UniProt P46098); assay: Selectivity interaction (Panel of kinases, GPCRs, ion channels and transporters (enzymatic assay)) EUB0000266bCl HTR3A
T2 sequence (whole entry): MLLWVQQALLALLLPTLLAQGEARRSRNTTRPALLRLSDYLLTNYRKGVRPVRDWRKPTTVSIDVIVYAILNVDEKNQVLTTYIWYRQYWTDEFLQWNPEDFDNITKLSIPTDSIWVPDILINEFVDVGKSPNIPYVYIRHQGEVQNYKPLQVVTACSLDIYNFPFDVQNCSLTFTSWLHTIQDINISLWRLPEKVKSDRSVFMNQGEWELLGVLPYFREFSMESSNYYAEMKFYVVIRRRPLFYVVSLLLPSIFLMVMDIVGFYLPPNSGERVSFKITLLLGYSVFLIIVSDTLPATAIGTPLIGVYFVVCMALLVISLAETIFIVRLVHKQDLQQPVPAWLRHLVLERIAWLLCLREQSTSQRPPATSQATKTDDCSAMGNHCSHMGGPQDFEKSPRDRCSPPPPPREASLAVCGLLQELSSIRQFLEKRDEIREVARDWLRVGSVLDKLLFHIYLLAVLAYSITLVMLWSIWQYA

[15] = biological target: Tyrosine-protein kinase Fes/Fps (Homo sapiens) (UniProt P07332); assay: Selectivity interaction (SelectScreen profiling (Invitrogen)) EUB0000607a FES; details: at 2 µM
[16] = biological target: T3, Tyrosine-protein kinase ITK/TSK (Homo sapiens) (UniProt Q08881); assay: Selectivity interaction (KinomeScan (DiscoverX)) EUB0000607a ITK; details: at 10 µM
T3 sequence (whole entry): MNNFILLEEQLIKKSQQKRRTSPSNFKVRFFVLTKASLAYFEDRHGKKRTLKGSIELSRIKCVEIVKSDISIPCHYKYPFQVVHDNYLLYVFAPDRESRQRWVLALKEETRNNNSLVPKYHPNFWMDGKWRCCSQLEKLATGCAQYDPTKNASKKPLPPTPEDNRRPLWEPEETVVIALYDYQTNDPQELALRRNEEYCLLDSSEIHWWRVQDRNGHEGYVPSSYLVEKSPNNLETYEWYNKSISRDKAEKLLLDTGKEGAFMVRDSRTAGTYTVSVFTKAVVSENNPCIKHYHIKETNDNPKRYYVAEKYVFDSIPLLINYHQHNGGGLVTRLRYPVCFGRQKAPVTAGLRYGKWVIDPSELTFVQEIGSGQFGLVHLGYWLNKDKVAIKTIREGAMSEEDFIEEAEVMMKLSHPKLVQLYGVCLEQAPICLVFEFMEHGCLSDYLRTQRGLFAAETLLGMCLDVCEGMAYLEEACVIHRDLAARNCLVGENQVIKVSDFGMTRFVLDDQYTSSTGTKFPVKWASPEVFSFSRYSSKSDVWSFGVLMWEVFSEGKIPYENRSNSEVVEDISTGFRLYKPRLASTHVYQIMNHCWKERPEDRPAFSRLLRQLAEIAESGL

[17] = biological target: Mitogen-activated protein kinase 7 (Homo sapiens) (UniProt Q13164); assay: Selectivity interaction (Kinase panel (Z-LYTE Assay)) EUB0001632a MAPK7; details: at 10 µM
[18] = biological target: Serine/threonine-protein kinase PLK2 (Homo sapiens, UniProt Q9NYY3); assay: Selectivity interaction (Kinase panel (Z-LYTE Assay)) EUB0001632a PLK2; details: at 10 µM

Sequence of Protein arginine N-methyltransferase 8 (Q9NR22 2-394 limits assumed): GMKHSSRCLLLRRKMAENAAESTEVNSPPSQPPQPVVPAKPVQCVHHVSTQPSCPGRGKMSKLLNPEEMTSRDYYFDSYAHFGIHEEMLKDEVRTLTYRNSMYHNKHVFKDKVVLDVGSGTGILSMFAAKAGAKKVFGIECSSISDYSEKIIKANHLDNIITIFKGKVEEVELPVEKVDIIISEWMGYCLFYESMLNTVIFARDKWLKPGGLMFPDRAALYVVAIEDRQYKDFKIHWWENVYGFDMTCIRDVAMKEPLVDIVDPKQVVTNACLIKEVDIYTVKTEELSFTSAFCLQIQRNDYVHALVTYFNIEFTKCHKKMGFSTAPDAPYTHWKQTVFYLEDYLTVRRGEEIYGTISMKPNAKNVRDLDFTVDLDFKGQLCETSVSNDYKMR
Sequence of Phosphatidylinositol 4,5-bisphosphate 3-kinase catalytic subunit beta isoform (Homo sapiens) (P42338 whole entry, looked up, canonical isoform): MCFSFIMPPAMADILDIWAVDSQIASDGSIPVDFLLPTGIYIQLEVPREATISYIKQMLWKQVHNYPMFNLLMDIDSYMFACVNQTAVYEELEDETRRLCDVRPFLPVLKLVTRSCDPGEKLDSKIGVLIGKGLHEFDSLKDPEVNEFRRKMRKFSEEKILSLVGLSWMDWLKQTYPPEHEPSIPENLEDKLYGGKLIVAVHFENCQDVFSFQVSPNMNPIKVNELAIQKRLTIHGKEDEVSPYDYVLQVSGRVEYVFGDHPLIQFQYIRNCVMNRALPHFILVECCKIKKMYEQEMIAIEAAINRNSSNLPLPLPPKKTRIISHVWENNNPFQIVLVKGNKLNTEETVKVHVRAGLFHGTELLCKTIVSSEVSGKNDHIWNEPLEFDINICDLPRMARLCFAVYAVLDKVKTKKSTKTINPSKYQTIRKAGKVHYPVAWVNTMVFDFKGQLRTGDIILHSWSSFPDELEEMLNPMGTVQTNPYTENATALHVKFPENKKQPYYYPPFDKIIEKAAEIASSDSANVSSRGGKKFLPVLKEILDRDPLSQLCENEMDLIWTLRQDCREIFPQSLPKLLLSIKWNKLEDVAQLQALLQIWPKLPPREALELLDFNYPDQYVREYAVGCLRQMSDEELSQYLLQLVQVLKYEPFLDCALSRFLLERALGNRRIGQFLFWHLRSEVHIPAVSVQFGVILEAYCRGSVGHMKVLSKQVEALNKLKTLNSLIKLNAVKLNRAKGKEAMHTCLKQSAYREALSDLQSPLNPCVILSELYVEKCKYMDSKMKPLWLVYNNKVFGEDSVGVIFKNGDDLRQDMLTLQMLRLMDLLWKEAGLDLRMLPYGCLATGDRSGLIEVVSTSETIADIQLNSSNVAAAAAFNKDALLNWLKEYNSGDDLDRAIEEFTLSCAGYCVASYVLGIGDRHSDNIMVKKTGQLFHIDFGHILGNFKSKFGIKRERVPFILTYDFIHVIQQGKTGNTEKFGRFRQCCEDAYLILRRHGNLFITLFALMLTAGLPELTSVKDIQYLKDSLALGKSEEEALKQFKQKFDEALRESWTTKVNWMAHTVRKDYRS
Sequence of Serine/threonine-protein kinase 26 (Q9P289 2-416 limits assumed): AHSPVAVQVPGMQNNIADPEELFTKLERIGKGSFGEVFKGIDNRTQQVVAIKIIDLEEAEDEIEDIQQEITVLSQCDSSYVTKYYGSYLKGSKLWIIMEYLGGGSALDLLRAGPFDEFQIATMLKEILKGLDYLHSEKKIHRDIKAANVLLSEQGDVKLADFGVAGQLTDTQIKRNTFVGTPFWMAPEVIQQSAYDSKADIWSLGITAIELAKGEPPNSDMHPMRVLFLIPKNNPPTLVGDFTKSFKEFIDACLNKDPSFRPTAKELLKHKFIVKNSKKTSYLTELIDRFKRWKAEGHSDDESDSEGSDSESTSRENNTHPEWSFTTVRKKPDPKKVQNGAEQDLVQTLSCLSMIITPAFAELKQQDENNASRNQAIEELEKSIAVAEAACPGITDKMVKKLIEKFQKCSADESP
Sequence of Tyrosine-protein kinase Fes/Fps (Homo sapiens) (P07332 whole entry): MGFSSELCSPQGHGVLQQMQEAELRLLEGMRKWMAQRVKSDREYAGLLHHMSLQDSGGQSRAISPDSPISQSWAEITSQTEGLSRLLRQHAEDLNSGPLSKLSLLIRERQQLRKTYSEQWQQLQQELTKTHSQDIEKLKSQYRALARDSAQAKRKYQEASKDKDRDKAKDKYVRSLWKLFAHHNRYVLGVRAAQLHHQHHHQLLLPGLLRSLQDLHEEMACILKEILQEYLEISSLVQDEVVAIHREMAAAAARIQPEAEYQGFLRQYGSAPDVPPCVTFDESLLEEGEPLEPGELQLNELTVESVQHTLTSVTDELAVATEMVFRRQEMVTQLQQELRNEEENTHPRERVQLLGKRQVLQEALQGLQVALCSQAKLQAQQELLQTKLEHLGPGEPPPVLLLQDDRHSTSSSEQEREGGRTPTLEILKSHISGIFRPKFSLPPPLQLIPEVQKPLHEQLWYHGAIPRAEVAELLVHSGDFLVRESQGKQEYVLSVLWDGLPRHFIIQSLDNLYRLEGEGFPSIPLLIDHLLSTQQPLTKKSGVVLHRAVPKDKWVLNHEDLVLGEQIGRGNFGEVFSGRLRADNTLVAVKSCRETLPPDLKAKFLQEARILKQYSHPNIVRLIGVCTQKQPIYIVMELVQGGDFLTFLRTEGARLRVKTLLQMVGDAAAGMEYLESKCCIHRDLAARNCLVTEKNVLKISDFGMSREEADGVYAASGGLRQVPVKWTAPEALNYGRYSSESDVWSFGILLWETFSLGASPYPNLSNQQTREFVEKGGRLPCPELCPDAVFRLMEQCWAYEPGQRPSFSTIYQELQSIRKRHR
Sequence of Serine/threonine-protein kinase/endoribonuclease IRE1 (Homo sapiens) (O75460 19-977 limits assumed): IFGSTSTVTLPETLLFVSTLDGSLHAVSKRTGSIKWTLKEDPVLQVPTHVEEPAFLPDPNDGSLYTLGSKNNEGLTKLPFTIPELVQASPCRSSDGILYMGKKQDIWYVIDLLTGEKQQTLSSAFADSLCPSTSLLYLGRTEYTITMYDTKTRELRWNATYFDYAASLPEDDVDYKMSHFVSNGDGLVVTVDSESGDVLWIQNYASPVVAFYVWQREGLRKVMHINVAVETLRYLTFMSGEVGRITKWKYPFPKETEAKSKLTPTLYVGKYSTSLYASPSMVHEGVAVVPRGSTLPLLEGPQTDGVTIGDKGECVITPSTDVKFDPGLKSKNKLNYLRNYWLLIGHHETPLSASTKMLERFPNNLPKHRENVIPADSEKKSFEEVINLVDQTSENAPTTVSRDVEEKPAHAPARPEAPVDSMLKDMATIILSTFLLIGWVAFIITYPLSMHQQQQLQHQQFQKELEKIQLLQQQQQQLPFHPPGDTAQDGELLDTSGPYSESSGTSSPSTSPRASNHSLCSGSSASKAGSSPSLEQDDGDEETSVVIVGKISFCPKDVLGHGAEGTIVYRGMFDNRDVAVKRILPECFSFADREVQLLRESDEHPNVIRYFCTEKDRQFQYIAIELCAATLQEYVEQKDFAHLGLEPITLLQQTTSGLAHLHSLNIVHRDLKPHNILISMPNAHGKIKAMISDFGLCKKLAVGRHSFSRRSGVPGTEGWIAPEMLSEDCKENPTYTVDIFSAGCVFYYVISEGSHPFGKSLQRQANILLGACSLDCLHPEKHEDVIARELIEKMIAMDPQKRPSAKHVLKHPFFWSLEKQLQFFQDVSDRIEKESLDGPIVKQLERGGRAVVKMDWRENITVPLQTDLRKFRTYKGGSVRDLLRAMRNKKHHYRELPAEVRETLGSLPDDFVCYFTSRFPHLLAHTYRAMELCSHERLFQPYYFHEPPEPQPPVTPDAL
Sequence of Ribosomal protein S6 kinase alpha-3 (P51812 whole entry): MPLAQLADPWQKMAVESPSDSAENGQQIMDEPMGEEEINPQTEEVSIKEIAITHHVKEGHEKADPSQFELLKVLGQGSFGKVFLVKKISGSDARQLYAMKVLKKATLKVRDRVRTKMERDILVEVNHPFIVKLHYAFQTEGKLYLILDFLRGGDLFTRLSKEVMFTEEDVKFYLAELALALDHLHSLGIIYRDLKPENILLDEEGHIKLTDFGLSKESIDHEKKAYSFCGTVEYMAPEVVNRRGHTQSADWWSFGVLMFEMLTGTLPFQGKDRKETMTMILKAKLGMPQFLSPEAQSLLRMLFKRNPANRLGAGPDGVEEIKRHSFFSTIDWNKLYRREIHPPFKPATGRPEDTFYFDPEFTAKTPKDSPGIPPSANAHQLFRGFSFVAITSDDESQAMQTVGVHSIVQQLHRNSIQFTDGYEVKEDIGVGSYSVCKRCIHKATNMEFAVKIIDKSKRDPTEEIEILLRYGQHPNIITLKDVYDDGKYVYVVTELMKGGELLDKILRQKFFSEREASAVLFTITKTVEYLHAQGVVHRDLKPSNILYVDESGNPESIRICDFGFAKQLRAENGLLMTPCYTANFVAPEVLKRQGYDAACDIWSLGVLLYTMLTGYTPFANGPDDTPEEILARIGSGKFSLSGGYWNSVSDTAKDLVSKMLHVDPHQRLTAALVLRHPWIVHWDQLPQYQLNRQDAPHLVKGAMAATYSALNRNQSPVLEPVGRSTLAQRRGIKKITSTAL
Sequence of Calcium/calmodulin-dependent protein kinase type II subunit delta (Homo sapiens) (Q13557 whole entry): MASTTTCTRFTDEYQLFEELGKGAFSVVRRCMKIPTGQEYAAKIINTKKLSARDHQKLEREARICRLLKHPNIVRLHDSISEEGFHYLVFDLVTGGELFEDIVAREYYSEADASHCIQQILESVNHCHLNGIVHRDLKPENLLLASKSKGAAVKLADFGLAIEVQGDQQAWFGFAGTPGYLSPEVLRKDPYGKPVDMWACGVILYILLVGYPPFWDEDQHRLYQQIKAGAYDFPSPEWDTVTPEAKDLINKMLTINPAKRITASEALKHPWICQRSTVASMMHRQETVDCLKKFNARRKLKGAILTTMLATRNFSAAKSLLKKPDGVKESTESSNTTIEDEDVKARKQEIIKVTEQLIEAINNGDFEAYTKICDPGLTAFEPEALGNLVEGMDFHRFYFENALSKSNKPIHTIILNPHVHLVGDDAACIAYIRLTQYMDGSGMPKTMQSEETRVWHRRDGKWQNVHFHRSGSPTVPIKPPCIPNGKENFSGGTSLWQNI

CC(=O)Nc1cccc(-n2c(=O)n(C3CC3)c(=O)c3c(Nc4ccc(I)cc4F)n(C)c(=O)c(C)c32)c1
% of control [1]: 107%

O=C(NOC[C@H](O)CO)c1ccc(F)c(F)c1Nc1ccc(I)cc1F
% of control [2]: 83%
% of control [3]: 97%

COc1cc(N(C)c2ccnc3ccc(C(F)(F)F)cc23)cc(OC)c1OC
% binding [4]: 94%
% binding [5]: 60%

C=CC(=O)Nc1ccc(C(=O)Nc2[nH]nc3c2CN(C(=O)N[C@H](CN(C)C)c2ccccc2)C3(C)C)cc1
% of engagement [6]: -0.9%

CCC(=O)N1CC[C@H](Nc2ncnc3c2CN(c2cnc(OC)c(C(F)(F)F)c2)CC3)C1 [LENIOLISIB]
% of inhibition [7]: 98%

COCCN1CCC(c2cc(CN(C)C(=O)c3cccc(Oc4ccccc4)c3)ccn2)CC1
% activity ([8]; at 1 µM): 50%
% activity ([8]; at 10 µM): > 90%

Cc1cc([C@@H](C)Nc2ccccc2C(=O)O)c2nc(N3CCOCC3)cc(=O)n2c1 [AZD-6482]
% of control [9]: 91%

CCc1cccc(CC)c1NC(=O)c1nn(C)c2c1CCc1cnc(Nc3ccc(C(=O)NC4CCN(C)CC4)cc3OC(F)(F)F)nc1-2
IC50 [10]: > 10 µM

N#Cc1cccc(-c2c[nH]c3ncnc(N4CCOCC4)c23)c1
% of control [11]: 100%
% of inhibition [12]: 39%

CN(C)CCOc1ccc(-c2nc(-c3ccncc3)c(-c3ccc4c(c3)CC/C4=N\O)[nH]2)cc1
% of control [13]: 100%

CCn1c(-c2nc3cc(C(=O)N4CCCC(N)C4)ccc3n2C)cc2ccccc21 (centres undefined)
pXC50 [14]: < 4.3 M

CNC(=O)Nc1ccc(-c2nc(N3CC4CCC(C3)O4)c3cnn(C4CCC5(CC4)OCCO5)c3n2)cc1
% of inhibition [15]: -1%
% of control [16]: 88%

Cn1cc(-n2cnc3c(NCc4nc5cc(Cl)c(Cl)cc5[nH]4)nc(N4CCOCC4)nc32)cn1
% of control [17]: 2.02%
% of control [18]: -0.658%

— ChEMBL document CHEMBL5465560, “Selectivity Literature for EUbOPEN Chemogenomic Library” (2024)
